Data taken from patent publication US20150104868A1, “Methods of Maintaining and Improving Biological Cell Function and Activity” (GARGILL INCORPORATED, priority 2012, published 2015).

System: CRL 1730 HUVECs
Assay: Microarray transcriptomics of HUVEC (HGERT/HG, HG/NG)
Assay type: cell-based, human
[1] = HUVEC, 5 mM ERT + 30 mM glucose vs 30 mM glucose
[2] = Prostate cancer, 8MP signaling pathway
[3] = Prostate cancer, Calcium/calmodulin
[4] = Prostate cancer, Carbohydrate binding
[5] = Prostate cancer, DNA binding, second listing
[6] = Prostate cancer, ILK signaling (integrin linked kinase)
[7] = Prostate cancer, Reactive oxygen species
[8] = Prostate cancer, Tyrosine phosphatase activity
[9] = Prostate cancer, Zinc ion transport

OC[C@@H](O)[C@@H](O)CO [ERT, meso-1,2,3,4-tetrahydroxybutane]
Ψ 1.07: HGERT/HG transcript SAMHD1 [1]
0.97 Ω: HGERT/HG transcript SOAT1 [1] | HGERT/HG SOAT1 (Sterol O-acyltransferase 1) (Prostate cancer, Sterol metabolism)
1.00 Ω: HGERT/HG transcript IFT20 [1] | HGERT/HG transcript MAGED1 [1] | HGERT/HG transcript VIM [1] | HGERT/HG transcript YME1L1 [1] | HGERT/HG VIM (Vimentin) [6]
Ψ 1.06: HGERT/HG transcript SOS1 [1] | HGERT/HG SOS1 (Son of sevenless homolog 1 (Drosophila)) (Prostate cancer, DNA binding)
0.96 Ω: HGERT/HG transcript PLEK2 [1] | HGERT/HG transcript SDHC [1]
Ψ 1.01: HGERT/HG transcript DAP [1] | HGERT/HG transcript DBT [1] | HGERT/HG transcript ENG [1] | HGERT/HG transcript FOXC1 [1] | HGERT/HG transcript HIG2 [1] | HGERT/HG transcript HPCAL1 [1] | HGERT/HG transcript KIDINS220 [1] | HGERT/HG transcript KIF1B [1] | HGERT/HG transcript LIMK1 [1] | HGERT/HG transcript NCK2 [1] | HGERT/HG transcript NDE1 [1] | HGERT/HG transcript OTUD5 [1] | HGERT/HG transcript PDIA5 [1] | HGERT/HG transcript PITRM1 [1] | HGERT/HG transcript PRRX1 [1] | HGERT/HG transcript PXN [1] | HGERT/HG transcript RPS6KA2 [1] | HGERT/HG transcript SEC31A [1] | HGERT/HG transcript SENP3 [1] | HGERT/HG transcript SESTD1 [1] | HGERT/HG transcript SH3PXD2B [1] | HGERT/HG transcript TACC1 [1] | HGERT/HG transcript TGM2 [1] | HGERT/HG transcript TIMP2 [1] | HGERT/HG transcript TXNDC11 [1] | HGERT/HG transcript USP22 [1] | HGERT/HG transcript WDFY2 [1] | HGERT/HG BMP6 (Bone morphogenetic protein 6) [2] | HGERT/HG HPCAL1 (Hippocalcin-like 1) [3] | HGERT/HG SEC31A (SEC31 homolog A (S. cerevisiae)) [3] | HGERT/HG ADAR (Adenosine deaminase, RNA-specific) (Prostate cancer, DNA binding) | HGERT/HG ATF6 (Activating transcription factor 6) (Prostate cancer, DNA binding) | HGERT/HG DBT (Dihydrolipoamide branched chain transacylase E2) (Prostate cancer, DNA binding) | HGERT/HG FOXC1 (Forkhead box C1) (Prostate cancer, DNA binding) | HGERT/HG FOXN3 (Forkhead box N3) (Prostate cancer, DNA binding) | HGERT/HG FOXP1 (Forkhead box P1) (Prostate cancer, DNA binding) | HGERT/HG GZF1 (GDNF-inducible zinc finger protein 1) (Prostate cancer, DNA binding) | HGERT/HG PCBP1 (Poly(rC) binding protein 1) (Prostate cancer, DNA binding) | HGERT/HG POLG (Polymerase (DNA directed), gamma) (Prostate cancer, DNA binding) | HGERT/HG PRRX1 (Paired related homeobox 1) (Prostate cancer, DNA binding) | HGERT/HG PUF60 (Poly-U binding splicing factor 60KDa) (Prostate cancer, DNA binding) | HGERT/HG RYBP (RING1 and YY1 binding protein) (Prostate cancer, DNA binding) | HGERT/HG SOX4 (SRY (sex determining region Y)-box 4) (Prostate cancer, DNA binding) | HGERT/HG TCF25 (Transcription factor 25 (basic helix-loop-helix)) (Prostate cancer, DNA binding) | HGERT/HG TOX4 (TOX high mobility group box family member 4) (Prostate cancer, DNA binding) | HGERT/HG TTF1 (Transcription termination factor, RNA polyrnerase 1) (Prostate cancer, DNA binding) | HGERT/HG ZBED3 (Zinc finger, BED-type containing 3) (Prostate cancer, DNA binding) | HGERT/HG ZNF232 (Zinc finger protein 232) (Prostate cancer, DNA binding) | HGERT/HG RYBP (RING1 and YY1 binding protein) [5] | HGERT/HG TTF1 (Transcription termination factor, RNA polymerase 1) [5] | HGERT/HG JUP (Junction plakoglobin) (Prostate cancer, Endothelial cell-cell adhesion) | HGERT/HG ACTN1 (Actinin, alpha 1) [6] | HGERT/HG PXN (Paxillin) [6] | HGERT/HG JUP (Junction plakaglobin) [7] | HGERT/HG PTPLAD1 (Protein tyrosine phosphatase-like A domain containing 1) [8] | HGERT/HG SLC39A13 (Solute carrer family 39 (zinc transporter), member 13) [9]
Ψ 1.13: HGERT/HG transcript IFI6 [1]
Ψ 1.03: HGERT/HG transcript DCAKD [1] | HGERT/HG transcript GSN [1] | HGERT/HG transcript MARK2 [1] | HGERT/HG transcript MYST4 [1] | HGERT/HG transcript PLEC1 [1] | HGERT/HG transcript SLC2A12 [1] | HGERT/HG PLEC1 (Plectin) (Prostate cancer, Actin binding) | HGERT/HG HNF1B (HNF1 homeobox B) (Prostate cancer, DNA binding) | HGERT/HG PIAS4 (Protein inhibitor of activated STAT, 4) (Prostate cancer, DNA binding) | HGERT/HG ZNF562 (Zinc finger protein 562) (Prostate cancer, DNA binding) | HGERT/HG PIAS4 (Protein inhibitor of activated STAT, 4) [5]
Ψ 1.02: HGERT/HG transcript FBLIM1 [1] | HGERT/HG transcript FURIN [1] | HGERT/HG transcript GJC1 [1] | HGERT/HG transcript GNAI2 [1] | HGERT/HG transcript GPR124 [1] | HGERT/HG transcript LYN [1] | HGERT/HG transcript NOTCH1 [1] | HGERT/HG transcript PDCD7 [1] | HGERT/HG transcript RHOB [1] | HGERT/HG transcript ZNF318 [1] | HGERT/HG GJC1 (Gap junction protein, gamma 1, 45kDa) [3] | HGERT/HG EXTL3 (Exostoses (multiple)-like 3) [4] | HGERT/HG GCS2 (Mannosyl-oligosaccharide glucosidase) [4] | HGERT/HG BBX (Bobby sox homolog (Drosophilia)) (Prostate cancer, DNA binding) | HGERT/HG DEAF1 (Deformed epidermal autoregulatory factor 1 (Drosophila)) (Prostate cancer, DNA binding) | HGERT/HG MXD4 (MAX dimerization protein 4) (Prostate cancer, DNA binding) | HGERT/HG POLO1 (Polymerase (DNA directed), delta 1, catalytic subunit 125kDa) (Prostate cancer, DNA binding) | HGERT/HG T8RG1 (Transforming growth factor beta regulator 1) (Prostate cancer, DNA binding) | HGERT/HG UBN1 (Ubinuclein 1) (Prostate cancer, DNA binding) | HGERT/HG FBUM1 (Gene ID 54751) [6] | HGERT/HG RHOB (Ras homolog gene family, member B) [6] | HGERT/HG RHOJ (Ras homolog gene family, member J) [6]
Ψ 1.00: HGERT/HG CIB1 (Calcium and integrin binding 1 (calmyrin)) [3]
0.94 Ω: HGERT/HG CORO1A (Coronin, actin binding protein, 1A) (Prostate cancer, Actin binding)
Ψ 1.05: HGERT/HG transcript HIP1 [1]
0.99 Ω: HGERT/HG transcript DDX54 [1] | HGERT/HG transcript DYNLT1 [1] | HGERT/HG transcript ESD [1] | HGERT/HG transcript FASTKD1 [1] | HGERT/HG transcript FASTKD3 [1] | HGERT/HG transcript HLTF [1] | HGERT/HG transcript HSPE1 [1] | HGERT/HG transcript RSU1 [1] | HGERT/HG transcript SLC25A24 [1] | HGERT/HG transcript SLK [1] | HGERT/HG transcript SMOX [1] | HGERT/HG transcript SUCLA2 [1] | HGERT/HG transcript TCEAL1 [1] | HGERT/HG transcript TCF12 [1] | HGERT/HG transcript VPS4B [1] | HGERT/HG UBE2D1 (Ubiquitin-conjugating enzyme E2D1 (U8C4/5 homolog, yeast)) [2] | HGERT/HG C6orf66 (NADH dehydrogenase (ubiquinone) 1 alpha subcomplex, assembly factor 4) [3] | HGERT/HG SLC25A24 (Solute carrier family 25 (mitochondrial carrier; phosphate carrier), member 24) [3] | HGERT/HG C10orf125 (Chromosome 10 open reading frame 125) [4] | HGERT/HG GPBP1 (GC-rich promoter binding protein 1) (Prostate cancer, DNA binding) | HGERT/HG HBP1 (HMG-box transcription factor 1) (Prostate cancer, DNA binding) | HGERT/HG KIN (KIN, antigenic determinant of recA protein homolog (mouse)) (Prostate cancer, DNA binding) | HGERT/HG RABGEF1 (RAB guanine nucleotide exchange factor (GEF) 1) (Prostate cancer, DNA binding) | HGERT/HG RNF11 (Ring finger protein 11) (Prostate cancer, DNA binding) | HGERT/HG RPA3 (Replication protein A3, 14kDa) (Prostate cancer, DNA binding) | HGERT/HG TCF12 (Transcription factor 12) (Prostate cancer, DNA binding) | HGERT/HG TRIM26 (Tripartite motif-containing 26) (Prostate cancer, DNA binding) | HGERT/HG ZNFT84 (Zinc finger protein 784) (Prostate cancer, DNA binding) | HGERT/HG pdcd6 (Aryl-hydrocarbon receptor repressor) (Prostate cancer, DNA binding) | HGERT/HG RNF11 (Ring finger protein 11) [5] | HGERT/HG RSU1 (Ras suppressor protein 1) [6] | HGERT/HG COX8A (Cytochrome c oxidase subunit VIIIA (ubiquitous)) [7] | HGERT/HG MPHOSPH6 (M-phase phosphoprotein 6) [7] | HGERT/HG SMOX (Spermine oxidase) [7] | HGERT/HG TCF12 (Transcription factor 12) [7] | HGERT/HG DUSP23 (Dual specificity phosphatase 23) [8] | HGERT/HG SLC30A6 (Solute carrer family 30 (zinc transporter), member 6) [9] | HGERT/HG SLC30A9 (Solute carrer family 30 (zinc transporter), member 9) [9]
0.99: HGERT/HG transcript EID2 [1] | HGERT/HG transcript HADH [1] | HGERT/HG transcript HIATL1 [1] | HGERT/HG transcript LUC7L2 [1] | HGERT/HG transcript MFSOL [1] | HGERT/HG transcript NDUFA4 [1] | HGERT/HG transcript OXCT1 [1] | HGERT/HG transcript PHF16 [1] | HGERT/HG transcript PLCD4 [1] | HGERT/HG transcript PLEKHA3 [1] | HGERT/HG transcript RNF20 [1] | HGERT/HG transcript SAMM50 [1] | HGERT/HG transcript SCFD1 [1] | HGERT/HG transcript SEC61G [1] | HGERT/HG transcript SETD3 [1] | HGERT/HG transcript SLC30A6 [1] | HGERT/HG transcript SLC41A2 [1] | HGERT/HG transcript SNX3 [1] | HGERT/HG transcript SNX14 [1] | HGERT/HG transcript SUDS3 [1] | HGERT/HG transcript TIMM8B [1] | HGERT/HG transcript TMEM14C [1] | HGERT/HG transcript U8A3 [1] | HGERT/HG transcript VPS26A [1] | HGERT/HG transcript ZNF59B [1]
0.98: HGERT/HG transcript MBIP [1] | HGERT/HG transcript MTM1 [1] | HGERT/HG transcript Magmas [1] | HGERT/HG transcript NAP8 [1] | HGERT/HG transcript SACM1L [1] | HGERT/HG transcript SFT2D2 [1] | HGERT/HG transcript SFXN4 [1] | HGERT/HG transcript SLC25A43 [1] | HGERT/HG transcript STXBP3 [1]
Ψ 1.04: HGERT/HG transcript GOLGA2 [1]
0.98 Ω: HGERT/HG transcript MAP4K3 [1] | HGERT/HG transcript PAQR3 [1] | HGERT/HG transcript RP2 [1] | HGERT/HG transcript SDHD [1] | HGERT/HG transcript STK39 [1] | HGERT/HG transcript TRIT1 [1] | HGERT/HG transcript ZMYM1 [1] | HGERT/HG B4GALT4 (UDP-Gal:betaGlcNAc beta 1,4-galactosyltransferase, polypeptide 4) [4] | HGERT/HG FOXN2 (Forkhead box N2) (Prostate cancer, DNA binding) | HGERT/HG HKR1 (HKR1, GU-Kruppel zinc finger family member) (Prostate cancer, DNA binding) | HGERT/HG MRRF (Mitochondrial ribosome recycling factor) (Prostate cancer, DNA binding) | HGERT/HG POLR2K (Polymerase (RNA) II (DNA directed) polypeptide K, 7.0kDa) (Prostate cancer, DNA binding) | HGERT/HG POLR3F (Polymerase (RNA) III (DNA directed) polypeptide F, 39 kDa) (Prostate cancer, DNA binding) | HGERT/HG SARNP (SAP domain containing ribonucleoprotein) (Prostate cancer, DNA binding) | HGERT/HG ZNF83 (Zinc finger protein 83) (Prostate cancer, DNA binding) | HGERT/HG ZNF267 (Zinc finger protein 267) (Prostate cancer, DNA binding) | HGERT/HG ZNF614 (Zinc finger protein 614) (Prostate cancer, DNA binding) | HGERT/HG SDHD (Succinate dehydrogenase complex, subunit D, integral membrane protein) [7] | HGERT/HG PAQR3 (Progestin and adipoQ receptor family member III) (Prostate cancer, Receptor activity) | HGERT/HG PGRMC2 (Progesterone receptor membrane component 2) (Prostate cancer, Steroid hormone receptor activity)
